# How the values were obtained:
# [1] = Cytotoxicity against human HuH7 cells by MTT assay; type: cell-based, Huh-7; conditions: read-out: TD50 (the source's name)
# [2] = system: Hepatitis C virus; assay: Antiviral activity against Hepatitis C virus subtype 1b infected in HuH7 cells assessed as inhibition of viral replication by RT-PCR analysis in the presence of fetal calf serum; type: functional, organism-based, Hepacivirus hominis; conditions: genotype 1b, Huh-7
# [3] = system: Hepatitis C virus; assay: Antiviral activity against Hepatitis C virus subtype 1a infected in HuH7 cells assessed as inhibition of viral replication by RT-PCR analysis in the presence of fetal calf serum; type: functional, organism-based, Hepacivirus hominis; conditions: Huh-7
# [4] = Ratio of EC50 for HCV subtype 1a to EC50 for HCV subtype 1b; type: functional
# [5] = Half life in rat at 2.5 mg/kg, po and 2.5 mg/kg, iv; type: ADME, organism-based; conditions: in vivo
# [6] = system: Rattus norvegicus; assay: AUC in rat plasma at 2.5 mg/kg, po; type: ADME, organism-based; design: dose 2.5 mg/kg, route oral; conditions: in vivo
# [7] = system: Rattus norvegicus; assay: Oral bioavailability in rat at 2.5 mg/kg; type: ADME, organism-based; conditions: in vivo
# [8] = Cmax in rat at 2.5 mg/kg, po; type: ADME, organism-based; design: dose 2.5 mg/kg, route oral; conditions: in vivo
# [9] = system: Rattus norvegicus; assay: Clearance in rat at 2.5 mg/kg, po and 2.5 mg/kg, iv; type: ADME, organism-based; conditions: in vivo
# [10] = system: Hepatitis C virus; assay: Antiviral activity against Hepatitis C virus subtype 1b infected in HuH7 cells assessed as inhibition of viral replication by RT-PCR analysis in the presence of human serum; type: functional, organism-based, Hepacivirus hominis; conditions: genotype 1b, Huh-7
SMILES,EC50 [2],EC50 [3],CC50 [1],also measured
CC(=O)Nc1ccc(Sc2ccc(C)cc2Nc2ncnc3nc(C4CCC4)ccc23)cc1,3.7 µM,15.8 µM,49.2 µM,
CCc1ccc2c(Nc3cc(C)ccc3Sc3ccccc3)ncnc2n1,3.4 µM,18.9 µM,22.7 µM,
Cc1ccc(Sc2ccc(F)cc2)c(Nc2ncnc3nc(C)ccc23)c1,3 µM,10.5 µM,6.1 µM,
COc1ccc(Sc2ccc(C)cc2Nc2ncnc3nc(C(C)C)ccc23)cc1,1.7 µM,11.4 µM,8.8 µM,
Cc1ccc(Sc2ccc(F)cc2)c(Nc2ncnc3nc(C(C)C)ccc23)c1,1.8 µM,3.2 µM,4.8 µM,
Cc1ccc(Sc2ccc(O)cc2)c(Nc2ncnc3nc(C4CC4)ccc23)c1,1.6 µM,10.5 µM,17.4 µM,
Cc1ccc(Sc2ccc(O)cc2)c(Nc2ncnc3nc(Oc4ccccc4)ncc23)c1,3.5 µM,5.3 µM,17.1 µM,
CC(=O)Nc1ccc(Sc2ccc(C)cc2Nc2ncnc3nc(C(C)C)ccc23)cc1,13.8 µM,2.6 µM,28.8 µM,
Cc1ccc(Sc2ccc(O)cc2)c(Nc2ncnc3nc(C(C)C)ccc23)c1,0.016 µM,0.17 µM,22.9 µM,half-life [5]: 3.1 h; AUC [6]: 1580 ng·h/mL; F [7]: 10%; Cmax [8]: 70 nM; CL [9]: 26.3 mL/min/kg; EC50 [10]: 0.17 µM
Cc1ccc(Sc2ccc(O)cc2)c(Nc2ncnc3nc(C4CCCCC4)ccc23)c1,0.88 µM,2.7 µM,> 3.12 µM,
Cc1ccc(Sc2ccccc2)c(Nc2cccc3nc(C)ccc23)c1,9.9 µM,15.7 µM,15.9 µM,
Cc1ccc(Sc2ccccc2)c(Nc2ncnc3nc(C)ccc23)c1,3.84 µM,13.3 µM,22.2 µM,
CC(=O)Nc1ccc(Sc2ccc(C)cc2Nc2ncnc3nc(C4CC4)ccc23)cc1,1.7 µM,15.2 µM,29.8 µM,
CCCc1ccc2c(Nc3cc(C)ccc3Sc3ccc(O)cc3)ncnc2n1,0.25 µM,7.1 µM,31.1 µM,
Cc1ccc(Sc2ccccc2)c(Nc2ccnc3cc(C)ccc23)c1,1.8 µM,,2.6 µM,
Cc1ccc(Sc2ccc(O)cc2)c(Nc2ncnc3nc(N(C)C)ncc23)c1,> 50 µM,> 50 µM,> 50 µM,

# More lines, main results first:
EC50 [2],EC50 [3],SMILES,CC50 [1],also measured
0.01 µM,4.8 µM,CCSc1ncc2c(Nc3cc(C)ccc3Sc3ccc(O)cc3)ncnc2n1,46.9 µM,
30 µM,47.6 µM,CCNc1ncc2c(Nc3cc(C)ccc3Sc3ccc(O)cc3)ncnc2n1,> 50 µM,
10 µM,62.2 µM,CCc1ccc2c(Nc3cc(C)ccc3Sc3ccc(O)cc3)ncnc2n1,78 µM,
3.4 µM,10.3 µM,Cc1ccc(Sc2ccccc2)c(Nc2ncnc3nc(C(C)C)ccc23)c1,8 µM,
0.05 µM,23.4 µM,Cc1ccc(Sc2ccc(O)cc2)c(Nc2ncnc3nc(C)ccc23)c1,> 100 µM,
1 µM,13.3 µM,Cc1ccc(Sc2ccccc2)c(Nc2ncnc3nc(CC(C)C)ccc23)c1,7.5 µM,
2.8 µM,22 µM,Cc1ccc(Sc2ccc(O)cc2)c(Nc2ncnc3nc(N4CCCCC4)ncc23)c1,> 50 µM,
0.47 µM,4.6 µM,Cc1ccc(Sc2ccc(O)cc2)c(Nc2ncnc3nc(C(C)(C)C)ccc23)c1,7.1 µM,
7.3 µM,14.1 µM,Cc1ccc(Sc2ccc(O)cc2)c(Nc2ncnc3nc(N4CCOCC4)ncc23)c1,> 50 µM,
> 50 µM,> 50 µM,CC(=O)Nc1ccc(Sc2ccc(C)cc2Nc2ncnc3nc(C)ccc23)cc1,> 50 µM,
13.3 µM,44.5 µM,COc1ccc(Sc2ccc(C)cc2Nc2ncnc3nc(C)ccc23)cc1,28.6 µM,
3.3 µM,27.4 µM,CC(=O)Nc1ccc(Sc2ccc(C)cc2Nc2ncnc3nc(CC(C)C)ccc23)cc1,38.5 µM,
0.018 µM,1.8 µM,Cc1ccc(Sc2ccccc2)c(Nc2ccnc3nc(C)ccc23)c1,8.6 µM,Ratio EC50 [4]: 100
12 µM,7.3 µM,CCOc1ncc2c(Nc3cc(C)ccc3Sc3ccc(O)cc3)ncnc2n1,29.7 µM,
0.32 µM,9.5 µM,CCCc1ccc2c(Nc3cc(C)ccc3Sc3ccccc3)ncnc2n1,11.8 µM,
3.1 µM,11.3 µM,Cc1ccc(Sc2ccc(O)cc2)c(Nc2ncnc3nc(C4CCC4)ccc23)c1,31.8 µM,
0.63 µM,13.8 µM,CCCc1ccc2c(Nc3cc(C)ccc3Sc3ccc(NC(C)=O)cc3)ncnc2n1,> 25 µM,
2.4 µM,14.3 µM,Cc1ccc(Sc2ccc(O)cc2)c(Nc2ncnc3nc(CC(C)C)ccc23)c1,11.2 µM,
> 8 µM,> 8 µM,COc1ncc2c(Nc3cc(C)ccc3Sc3ccc(O)cc3)ncnc2n1,> 8 µM,
1.6 µM,6.1 µM,Cc1ccc(Sc2ccccc2)c(Nc2ncnc3nc(C4CCC4)ccc23)c1,3.6 µM,
3.7 µM,10.4 µM,Cc1ccc(Sc2ccccc2)c(Nc2ncnc3nc(C4CC4)ccc23)c1,9.9 µM,
6.9 µM,> 12.5 µM,CCc1ccc2c(Nc3cc(C)ccc3Sc3ccc(NC(C)=O)cc3)ncnc2n1,> 12.5 µM,
11.2 µM,18.9 µM,Cc1ccc(Sc2ccc(NS(C)(=O)=O)cc2)c(Nc2ncnc3nc(C(C)C)ccc23)c1,> 50 µM,

# From ChEMBL document CHEMBL1955843, “Novel hepatitis C virus replicon inhibitors: synthesis and structure-activity relationships of fused pyrimidine derivatives” (Bioorg Med Chem Lett, 2012)
